{"source": "patent US20100092499A1", "about": "“Alpha Thymosin Peptides as Cancer Vaccine Adjuvants” (SCICLONE PHARMACEUTICALS, INC., priority 2004, published 2010)", "key": {"patient tumor cells": {"system": "patient tumor cells", "assay": "Lymphocyte Proliferation Assay (LPI)", "format": "cell-based, human", "conditions": "five patients with LPI lower than 20 U after second DC immunization; thymalfasin 1.6 mg twice a week for 6 months plus 4 additional DC vaccine courses", "method": "(§1) After the second vaccination course, the cellular immunization were measured, if this is >=20 ULPI (Linfocitic Proliferative Index) continued with the vaccination.\nThe patient immune response was measured using a well known in-vitro test named Lymphocyte Proliferation Assay. Briefly, mononuclear cells from the patient were purified and mixed with a suspension of the patient tumor cells at ratio 10:1 (3000 Lympho-monocytes vs 300 tumor cells). The mix cell suspension was seeded in a multi well plate and incubated at 37° C. After 96 hr the cells were harvested and counted by an automatic haemocytometer."}, "human CD34 stem cells": {"system": "human CD34 stem cells", "conditions": "added to human CD34 stem cells in culture; cited from earlier work"}, "[1]": {"system": "IFNγ, IL-2, IL-3, IL-2 receptor", "conditions": "following activation by mitogens or antigens; cited from earlier work"}, "thymocytes": {"system": "thymocytes", "conditions": "in vitro, dose-dependent; most pronounced on CD4CD8 double positive immature T cells; cited from earlier work"}, "[2]": {"conditions": "in vivo; cited from earlier work"}, "advanced breast cancer": {"system": "advanced breast cancer", "assay": "Clinical study of dendritic cell vaccine with or without thymalfasin in advanced breast cancer patients", "format": "in vivo, human", "conditions": "for Patient Survival: 12 months; for Patient Survival / Patients with Tumor Reduction >50%: Group 3 non responders (LPI <20 U), 6 dendritic cell immunizations plus thymalfasin 1.6 mg twice a week, n=5; for Patients with Tumor Reduction >50%: Month 6", "method": "Finally, the patients were immunized with the activated B cells hybrid itself, or a B cell hybrid cocultured with the patients' Dendritic Cells. This immunization was applied into a healthy lymph node once every three weeks. At the same time, the patients received 1.6 mg thymalfasin subcutaneously in the evenings (within between 7:00 pm and 9:00 pm) every 3 days during the time of immunization and for the following six months after the vaccination protocol was completed. This vaccination plan may, for example, involve from 4 to 10 doses, although these numbers are not exclusive.\nEighteen patients with advanced breast cancer resistant to chemo, radio and hormonotherapy were treated.\nAll the patients were female with Breast Cancer class 4 (with metastases).\nThe age rank was between 39 to 71 years.\nThe patients were treated with dendritic cell vaccine (according protocol: Annals of Oncology 2004-Vol 15. Supp. 3 Abs: iii40-Dendritic Cell Vaccine for Metastases Breast Cancer).\nas §1\nIf the response was <20 ULPI, the patients were divided in 2 groups (randomized) of 5 and 7 patients group. The 5 patients group received Dendritic Cells\nVaccine plus thymalfasin (1.6 mg/tw during 6 months).\nThe clinical response and the survival data originated on total 18 metastatic breast patients treated were collected and, in order to perform a case serial statistic analysis we divided the total population in three different groups.\nIn Group 3 (n=5), patients received 6 dendritic cell immunizations with an LPI <20 U (non immune response) after the second vaccine and they received thymalfasin (1.6 mg/twice a week)."}}, "data": [{"substance": "thymosin alpha 1 [thymalfasin]", "values": [{"measurement": "Lymphocyte Proliferation Index (LPI)", "setting": "patient tumor cells", "value": "able to improve the LPI"}, {"measurement": "thymopoiesis (number of total CD3 T cells, synthesis of IL-7)", "setting": "human CD34 stem cells", "value": "increased thymopoiesis"}, {"measurement": "production of IFNγ, IL-2, IL-3 and expression of the IL-2 receptor", "setting": "[1]", "value": "can increase production"}, {"measurement": "dexamethasone-induced apoptosis in thymocytes", "setting": "thymocytes", "value": "antagonizes"}, {"measurement": "safety / side effects", "setting": "[2]", "value": "safe drug and its potential side effects are significantly low"}, {"measurement": "Patient Survival", "setting": "advanced breast cancer", "value": 80, "unit": "%"}, {"measurement": "Patient Survival", "setting": "advanced breast cancer; listed as THYMALFASIN", "value": 80, "unit": "%"}, {"measurement": "Patients with Tumor Reduction >50%", "setting": "advanced breast cancer", "value": 80, "unit": "%"}, {"measurement": "Patients with Tumor Reduction >50%", "setting": "advanced breast cancer; listed as THYMALFASIN", "value": 80, "unit": "%"}, {"measurement": "Patient survival compared with immune responders and non immune responders who did not receive thymalfasin", "setting": "advanced breast cancer; advanced breast cancer patients, dendritic cell immunization", "value": "higher"}, {"measurement": "effective tumor response", "setting": "advanced breast cancer; five patients with LPI lower than 20 U, thymalfasin 1.6 mg twice a week for 6 months plus 4 additional DC vaccine courses", "value": "majority of the treated patients showed an effective tumor response"}]}]}
